Data reported in the supplement of paper PMC10307832.

Tests used:
Assay in all cases: relative viability (nuclei count vs DMSO), 5 days (fraction); higher = more cells survive
[1] = compound: C1/C(=C\C2=CC=CS2)/C(=O)/C(=C/C3=CC=CS3)/C1 + CC(=O)Nc1cccc(-n2c(=O)n(C3CC3)c(=O)c3c(Nc4ccc(I)cc4F)n(C)c(=O)c(C)c32)c1 [Trametinib] (partner 0.02 µM)
In short: (§1)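 For relative viability, nuclei counts in treated wells were divided by those in vehicle wells. Lung cancer cell lines had been pin-tool dosed in 1536-well plates the day after seeding and cultured for 5 days, then fixed and stained in one step (final 0.05% Triton X-100, 1% formaldehyde, 1 ug/ml Hoechst) and imaged at 4×. Doses were one drug alone or a fixed anchor-drug dose plus five library-drug doses (not always all listed) in √10 steps, and values are duplicate-plate medians.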

[2] = compound: C1/C(=C\C2=CC=CS2)/C(=O)/C(=C/C3=CC=CS3)/C1 + COc1cccc2cc(-c3nc([C@H]4CC[C@H](C(=O)O)CC4)n4ncnc(N)c34)[nH]c12 [OSI-027] (partner 0.5 µM)
In short: as §1

[3] = compound: C[C@]12O[C@H](C[C@]1(O)CO)n1c3ccccc3c3c4c(c5c6ccccc6n2c5c31)CNC4=O [Lestaurtinib] + C[C@]1(O)C[C@@H](c2nc(-c3ccc4ccc(-c5ccccc5)nc4c3)c3c(N)nccn32)C1 [Linsitinib] (partner 1 µM)
In short: as §1

[4] = compound: C[C@]12O[C@H](C[C@]1(O)CO)n1c3ccccc3c3c4c(c5c6ccccc6n2c5c31)CNC4=O [Lestaurtinib] + Cc1cc(Nc2cc(N3CCN(C)CC3)nc(Sc3ccc(NC(=O)C4CC4)cc3)n2)n[nH]1 [Tozasertib] (partner 0.1 µM)
In short: as §1

Cell Line	relative viability ([1]; first compound 0.2 µM)	relative viability ([1]; first compound 0.6325 µM)	relative viability ([1]; first compound 2 µM)	relative viability ([1]; first compound 6.325 µM)	relative viability ([1]; first compound 20 µM)	relative viability ([2]; first compound 0.2 µM)	relative viability ([2]; first compound 0.6325 µM)	relative viability ([2]; first compound 6.325 µM)	relative viability ([2]; first compound 20 µM)	relative viability ([3]; first compound 0.005 µM)	relative viability ([3]; first compound 0.01581 µM)	relative viability ([3]; first compound 0.05 µM)	relative viability ([3]; first compound 0.1581 µM)	relative viability ([3]; first compound 0.5 µM)	relative viability ([4]; first compound 0.005 µM)	relative viability ([4]; first compound 0.01581 µM)	relative viability ([4]; first compound 0.05 µM)	relative viability ([4]; first compound 0.1581 µM)	relative viability ([4]; first compound 0.5 µM)	relative viability ([2]; first compound 2 µM)
NCI-H1975	0.345	0.326	0.282	0.321	0.362	0.944	0.689	0.661	0.739	1.09	0.967	0.717	0.537	0.302	0.943	1.02	0.715	0.552	0.486	
NCI-H1993	0.491	0.412	0.478	0.437	0.447	0.627	0.54	0.447	0.523	0.702	0.673	0.713	0.698	0.573	0.636	0.545	0.57	0.54	0.529	0.585
NCI-H2009	0.284	0.308	0.317		0.272	0.622	0.755	0.557	0.607	1.25	1.23	1.09	1.01	0.581	0.783	0.832	0.625	0.454	0.359	0.707
NCI-H2023	0.629	0.546	0.684	0.511	0.555	0.394	0.469	0.304	0.364	0.653	0.709	0.547	0.369	0.208	0.386	0.554	0.357	0.269	0.0989	0.425
NCI-H2085	0.516	0.513	0.545	0.635	0.538	0.884	1.04	0.685	0.678	0.952	1.01	1.04	0.901	0.819	0.828	0.83	0.75	0.882	0.56	0.754
NCI-H2087	0.201	0.17	0.18	0.157	0.294	0.716	0.688	0.457	0.42	1	0.923	0.709	0.648	0.275	0.321	0.378	0.208	0.265	0.212	0.769
NCI-H2126	0.554	0.586	0.576	0.502	0.585	0.74	0.645	0.598	0.774	0.725	0.735	0.573	0.605	0.585	0.919	0.963	0.802	0.699	0.48	0.711
NCI-H2228	0.559	0.517	0.414	0.43	0.424	0.62	0.602	0.521	0.537	0.892	0.812	0.402	0.284	0.37	0.178	0.23	0.257	0.219	0.163	0.81
